Source: PMC9952331, “Ethyl Gallate Isolated from Castanopsis cuspidata var. sieboldii Branches Inhibits Melanogenesis and Promotes Autophagy in B16F10 Cells” (Antioxidants, 2023)
In brackets after ≈: the same amount, converted by molar mass.

Legend:
[1] = target: mushroom tyrosinase; assay: enzyme kinetics with L-DOPA substrate, Lineweaver-Burk plot; IC50 […] also reported; type: biochemical
[2] = test system: mushroom tyrosinase; assay: cell-free tyrosinase inhibition assay with L-tyrosine substrate, absorbance at […] nm; type: biochemical

Row | Ki [1] | IC50 [2] | Structure (SMILES)
1 | 434 µM | – | CCOC(=O)c1cc(O)c(O)c(O)c1 [Compound 1, ethyl gallate]
2 | – | 30.99 ± 0.86 µg/mL (≈ 176 µM) | O=C1O[C@H]([C@@H](O)CO)C(O)=C1O [ascorbic acid]
